Columns and labels:
Assay in all cases: cells
KYSE-410 = type: functional, cell-based, Homo sapiens; details: Homo sapiens, KYSE-410;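 further: growth inhibition of KYSE-410 cells, measured through a cell viability readout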
Description: SANGER: Inhibition of human KYSE-410 cell growth in a cell viability assay.

BHT-101 = type: functional, cell-based, Homo sapiens; details: Homo sapiens, BHT-101
Description: SANGER: Inhibition of human BHT-101 cell growth in a cell viability assay.

KLE = type: functional, cell-based, Homo sapiens; details: Homo sapiens, KLE;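 further: growth inhibition of human KLE cells, read out with a cell viability assay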
Description: SANGER: Inhibition of human KLE cell growth in a cell viability assay.

ES8 = type: functional, cell-based, Homo sapiens; details: Homo sapiens, ES8;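 further: growth inhibition of human ES8 cells, read out with a cell viability assay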
Description: SANGER: Inhibition of human ES8 cell growth in a cell viability assay.

A498 = type: functional, cell-based, Homo sapiens; details: Homo sapiens, A498;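 further: growth inhibition of human A498 cells, read out with a cell viability assay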
Description: SANGER: Inhibition of human A498 cell growth in a cell viability assay.

COLO-679 = type: functional, cell-based, Homo sapiens; details: Homo sapiens, COLO-679
Description: SANGER: Inhibition of human COLO-679 cell growth in a cell viability assay.

DB = type: functional, cell-based; details: Homo sapiens
Description: SANGER: Inhibition of human DB cell growth in a cell viability assay.

HT-3 = type: functional, cell-based, Homo sapiens; details: Homo sapiens, HT-3;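 further: growth inhibition measured with a cell viability readout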
Description: SANGER: Inhibition of human HT-3 cell growth in a cell viability assay.

NCI-H520 = type: functional, cell-based, Homo sapiens; details: Homo sapiens, NCI-H520;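 further: growth inhibition of NCI-H520 cells, measured by a cell viability assay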
Description: SANGER: Inhibition of human NCI-H520 cell growth in a cell viability assay.

C3A = type: functional, cell-based, Homo sapiens; details: Homo sapiens, C3A;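 further: growth inhibition of C3A human cells, quantified with a cell viability readout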
Description: SANGER: Inhibition of human C3A cell growth in a cell viability assay.

DEL = type: functional, cell-based; details: Homo sapiens;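 further: growth inhibition of the human DEL cell line, read out with a cell viability assay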
Description: SANGER: Inhibition of human DEL cell growth in a cell viability assay.

MZ1-PC = type: functional, cell-based, Homo sapiens; details: Homo sapiens, MZ1-PC;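 further: cell viability assay measuring growth inhibition of human MZ1-PC cells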
Description: SANGER: Inhibition of human MZ1-PC cell growth in a cell viability assay.

C-33-A = type: functional, cell-based, Homo sapiens; details: Homo sapiens, C-33-A;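 further: cell viability assay measuring growth inhibition of C-33-A cells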
Description: SANGER: Inhibition of human C-33-A cell growth in a cell viability assay.

MEG-01 = type: functional, cell-based; details: Homo sapiens;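 further: growth inhibition of MEG-01 cells, read out by a cell viability assay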
Description: SANGER: Inhibition of human MEG-01 cell growth in a cell viability assay.

LOX IMVI = type: functional, cell-based; details: Homo sapiens
Description: SANGER: Inhibition of human LOXIMVI cell growth in a cell viability assay.

SNU-449 = type: functional, cell-based, Homo sapiens; details: Homo sapiens, SNU-449
Description: SANGER: Inhibition of human SNU-449 cell growth in a cell viability assay.

NCI-H1693 = type: functional, cell-based, Homo sapiens; details: Homo sapiens, NCI-H1693;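 further: growth inhibition of the human cell line, read out with a cell viability assay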
Description: SANGER: Inhibition of human NCI-H1693 cell growth in a cell viability assay.

VM-CUB-1 = type: functional, cell-based; details: Homo sapiens;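 further: cell viability assay measuring growth inhibition of the human VM-CUB-1 cell line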
Description: SANGER: Inhibition of human VM-CUB-1 cell growth in a cell viability assay.

ES4 = type: functional, cell-based, Homo sapiens; details: Homo sapiens, ES4;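 further: growth inhibition of human ES4 cells, read out by a cell viability assay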
Description: SANGER: Inhibition of human ES4 cell growth in a cell viability assay.

HO-1-N-1 = type: functional, cell-based, Homo sapiens; details: Homo sapiens, HO-1-N-1;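 further: growth inhibition of human HO-1-N-1 cells, read out with a cell viability assay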
Description: SANGER: Inhibition of human HO-1-N-1 cell growth in a cell viability assay.

MKN-28 = type: functional, cell-based, Homo sapiens; details: Homo sapiens, MKN-28;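 further: cell viability assay read-out, IC50 reflects suppression of growth of human MKN-28 cells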
Description: SANGER: Inhibition of human MKN28 cell growth in a cell viability assay.

SK-MEL-24 = type: functional, cell-based; details: Homo sapiens;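 further: growth inhibition read out by a cell viability assay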
Description: SANGER: Inhibition of human SK-MEL-24 cell growth in a cell viability assay.

8305C = type: functional, cell-based, Homo sapiens; details: Homo sapiens, 8305C
Description: SANGER: Inhibition of human 8305C cell growth in a cell viability assay.

ETK-1 = type: functional, cell-based, Homo sapiens; details: Homo sapiens, ETK-1;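 further: growth inhibition of human ETK-1 cells, read out with a cell viability assay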
Description: SANGER: Inhibition of human ETK-1 cell growth in a cell viability assay.

EW-13 = type: functional, cell-based; details: Homo sapiens;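 further: growth inhibition of EW-13 cells, read out with a cell viability assay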
Description: SANGER: Inhibition of human EW-13 cell growth in a cell viability assay.

HuO-3N1 = type: functional, cell-based, Homo sapiens; details: Homo sapiens, HuO-3N1;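 further: cell viability readout used to measure how strongly compounds suppress proliferation of human HuO-3N1 cells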
Description: SANGER: Inhibition of human HuO-3N1 cell growth in a cell viability assay.

CAL-27 = type: functional, cell-based, Homo sapiens; details: Homo sapiens, CAL-27;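 further: Viability-based readout, IC50 reflecting inhibition of CAL-27 cell growth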
Description: SANGER: Inhibition of human CAL-27 cell growth in a cell viability assay.

LC-2-ad = type: functional, cell-based, Homo sapiens; details: Homo sapiens, LC-2-ad;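 further: growth inhibition of human LC-2-ad cells, read out with a cell viability assay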
Description: SANGER: Inhibition of human LC-2-ad cell growth in a cell viability assay.

LU-99A = type: functional, cell-based, Homo sapiens; details: Homo sapiens, LU-99A;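 further: growth inhibition of LU-99A cells, read out with a cell viability assay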
Description: SANGER: Inhibition of human LU-99A cell growth in a cell viability assay.

NCI-H2126 = type: functional, cell-based, Homo sapiens; details: Homo sapiens, NCI-H2126;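 further: growth inhibition of the cancer cell line, determined with a cell viability readout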
Description: SANGER: Inhibition of human NCI-H2126 cell growth in a cell viability assay.

T98G = type: functional, cell-based, Homo sapiens; details: Homo sapiens, T98G;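 further: growth inhibition of T98G cells, read out by a cell viability assay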
Description: SANGER: Inhibition of human T98G cell growth in a cell viability assay.

LS-513 = type: functional, cell-based, Homo sapiens; details: Homo sapiens, LS-513
Description: SANGER: Inhibition of human LS-513 cell growth in a cell viability assay.

CAL-51 = type: functional, cell-based, Homo sapiens; details: Homo sapiens, CAL-51;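 further: human CAL-51 cell line, growth inhibition read out via a cell viability assay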
Description: SANGER: Inhibition of human CAL-51 cell growth in a cell viability assay.

KE-37 = type: functional, cell-based; details: Homo sapiens;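 further: growth inhibition of KE-37 cells, read out with a cell viability assay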
Description: SANGER: Inhibition of human KE-37 cell growth in a cell viability assay.

MHH-PREB-1 = type: functional, cell-based; details: Homo sapiens;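 further: cell viability assay measuring inhibition of proliferation of human MHH-PREB-1 cells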
Description: SANGER: Inhibition of human MHH-PREB-1 cell growth in a cell viability assay.

SW-620 = type: functional, cell-based, Homo sapiens; details: Homo sapiens, SW-620;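 further: growth inhibition of human SW-620 cells, measured by a cell viability assay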
Description: SANGER: Inhibition of human SW620 cell growth in a cell viability assay.

A2780 = type: functional, cell-based, Homo sapiens; details: Homo sapiens, A2780;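 further: growth inhibition of A2780 cells, read out with a cell viability assay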
Description: SANGER: Inhibition of human A2780 cell growth in a cell viability assay.

CAL-62 = type: functional, cell-based, Homo sapiens; details: Homo sapiens, CAL-62;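 further: growth inhibition of CAL-62 cells, read out with a cell viability assay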
Description: SANGER: Inhibition of human CAL-62 cell growth in a cell viability assay.

SW48 = type: functional, cell-based, Homo sapiens; details: Homo sapiens, SW48;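 further: growth inhibition of SW48 cells, read out with a cell viability assay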
Description: SANGER: Inhibition of human SW48 cell growth in a cell viability assay.

YKG-1 = type: functional, cell-based, Homo sapiens; details: Homo sapiens, YKG-1;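 further: cell growth inhibition, read out with a viability assay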
Description: SANGER: Inhibition of human YKG-1 cell growth in a cell viability assay.

CHP-212 = type: functional, cell-based, Homo sapiens; details: Homo sapiens, CHP-212
Description: SANGER: Inhibition of human CHP-212 cell growth in a cell viability assay.

IST-MEL1 = type: functional, cell-based, Homo sapiens; details: Homo sapiens, IST-MEL1;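 further: growth inhibition of the cell line, read out with a cell viability assay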
Description: SANGER: Inhibition of human IST-MEL1 cell growth in a cell viability assay.

BB30-HNC = type: functional, cell-based, Homo sapiens; details: Homo sapiens, BB30-HNC;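 further: growth inhibition of the cultured cell line, read out by a cell viability assay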
Description: SANGER: Inhibition of human BB30-HNC cell growth in a cell viability assay.

Detroit 562 = type: functional, cell-based, Homo sapiens; details: Homo sapiens, Detroit 562;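 further: growth inhibition of human Detroit 562 cells, read out by a cell viability assay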
Description: SANGER: Inhibition of human Detroit562 cell growth in a cell viability assay.

KNS-42 = type: functional, cell-based, Homo sapiens; details: Homo sapiens, KNS-42;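 further: growth inhibition of KNS-42 cells, read out with a cell viability assay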
Description: SANGER: Inhibition of human KNS-42 cell growth in a cell viability assay.

KYSE-70 cell line = type: functional, cell-based, Homo sapiens; details: Homo sapiens, KYSE-70;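 further: cell viability assay read-out, with IC50 expressing suppression of KYSE-70 cell growth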
Description: SANGER: Inhibition of human KYSE-70 cell growth in a cell viability assay.

NB5 = type: functional, cell-based, Homo sapiens; details: Homo sapiens, NB5;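 further: growth inhibition of NB5 cells, read out as cell viability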
Description: SANGER: Inhibition of human NB5 cell growth in a cell viability assay.

NCI-H526 = type: functional, cell-based; details: Homo sapiens;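 further: growth inhibition of the human NCI-H526 cell line, measured by a cell viability assay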
Description: SANGER: Inhibition of human NCI-H526 cell growth in a cell viability assay.

MHH-ES-1 = type: functional, cell-based, Homo sapiens; details: Homo sapiens, MHH-ES-1;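 further: cell growth inhibition measured by a cell viability assay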
Description: SANGER: Inhibition of human MHH-ES-1 cell growth in a cell viability assay.

SW13 = type: functional, cell-based, Homo sapiens; details: Homo sapiens, SW13;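 further: IC50 is inhibition of SW13 cell growth, read out with a cell viability assay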
Description: SANGER: Inhibition of human SW13 cell growth in a cell viability assay.

SBC-1 = type: functional, cell-based; details: Homo sapiens;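 further: cell viability assay measuring growth inhibition of the SBC-1 cell line, IC50 being the concentration that halves growth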
Description: SANGER: Inhibition of human SBC-1 cell growth in a cell viability assay.

BB49-HNC = type: functional, cell-based, Homo sapiens; details: Homo sapiens, BB49-HNC;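 further: cell viability assay read-out, reported as inhibition of BB49-HNC cell growth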
Description: SANGER: Inhibition of human BB49-HNC cell growth in a cell viability assay.

COc1cc([C@@H]2c3cc4c(cc3[C@@H](O[C@@H]3O[C@@H]5CO[C@@H](C)O[C@H]5[C@H](O)[C@H]3O)[C@H]3COC(=O)[C@H]23)OCO4)cc(OC)c1O [ETOPOSIDE]
IC50 (KYSE-410): 12800 nM
IC50 (BHT-101): 3110 nM
IC50 (KLE): 10300 nM
IC50 (ES8): 142 nM
IC50 (A498): > 16000 nM
IC50 (COLO-679): 163 nM
IC50 (DB): 6530 nM
IC50 (HT-3): 1130 nM
IC50 (NCI-H520): 8040 nM
IC50 (C3A): 7930 nM
IC50 (DEL): 311 nM
IC50 (MZ1-PC): 811 nM
IC50 (C-33-A): 862 nM
IC50 (MEG-01): 4750 nM
IC50 (LOX IMVI): > 16000 nM
IC50 (SNU-449): > 16000 nM
IC50 (NCI-H1693): > 16000 nM
IC50 (VM-CUB-1): 2580 nM
IC50 (ES4): 521 nM
IC50 (HO-1-N-1): 2380 nM
IC50 (MKN-28): 2550 nM
IC50 (SK-MEL-24): > 16000 nM
IC50 (8305C): 2320 nM
IC50 (ETK-1): 2750 nM
IC50 (EW-13): 88.9 nM
IC50 (HuO-3N1): 7710 nM
IC50 (CAL-27): 10400 nM
IC50 (LC-2-ad): 2060 nM
IC50 (LU-99A): 2430 nM
IC50 (NCI-H2126): 10400 nM
IC50 (T98G): 8820 nM
IC50 (LS-513): > 16000 nM
IC50 (CAL-51): 1080 nM
IC50 (KE-37): 40.7 nM
IC50 (MHH-PREB-1): > 16000 nM
IC50 (SW-620): 384 nM
IC50 (A2780): 1110 nM
IC50 (CAL-62): 851 nM
IC50 (SW48): 869 nM
IC50 (YKG-1): 1230 nM
IC50 (CHP-212): 1410 nM
IC50 (IST-MEL1): 3000 nM
IC50 (BB30-HNC): 64.2 nM
IC50 (Detroit 562): 11100 nM
IC50 (KNS-42): 13700 nM
IC50 (KYSE-70 cell line): > 16000 nM
IC50 (NB5): > 16000 nM
IC50 (NCI-H526): 456 nM
IC50 (MHH-ES-1): 463 nM
IC50 (SW13): 1800 nM
IC50 (SBC-1): > 16000 nM
IC50 (BB49-HNC): > 16000 nM

Cc1cnc(-c2cnc(NCCNc3ccc(C#N)cn3)nc2-c2ccc(Cl)cc2Cl)[nH]1 [LADUVIGLUSIB]
IC50 (KYSE-410): > 2560 nM
IC50 (BHT-101): > 2560 nM
IC50 (KLE): > 2560 nM
IC50 (ES8): > 2560 nM
IC50 (A498): 1300 nM
IC50 (COLO-679): > 2560 nM
IC50 (DB): > 2560 nM
IC50 (HT-3): > 2560 nM
IC50 (NCI-H520): > 2560 nM
IC50 (C3A): > 2560 nM
IC50 (DEL): > 2560 nM
IC50 (MZ1-PC): > 2560 nM
IC50 (C-33-A): > 2560 nM
IC50 (MEG-01): > 2560 nM
IC50 (LOX IMVI): 588 nM
IC50 (SNU-449): > 2560 nM
IC50 (NCI-H1693): > 2560 nM
IC50 (VM-CUB-1): > 2560 nM
IC50 (ES4): > 2560 nM
IC50 (HO-1-N-1): > 2560 nM
IC50 (MKN-28): > 2560 nM
IC50 (SK-MEL-24): > 2560 nM
IC50 (8305C): > 2560 nM
IC50 (ETK-1): > 2560 nM
IC50 (EW-13): > 2560 nM
IC50 (HuO-3N1): > 2560 nM
IC50 (CAL-27): > 2560 nM
IC50 (LC-2-ad): > 2560 nM
IC50 (LU-99A): > 2560 nM
IC50 (NCI-H2126): > 2560 nM
IC50 (T98G): > 2560 nM
IC50 (LS-513): > 2560 nM
IC50 (CAL-51): > 2560 nM
IC50 (KE-37): > 2560 nM
IC50 (MHH-PREB-1): > 2560 nM
IC50 (SW-620): > 2560 nM
IC50 (A2780): > 2560 nM
IC50 (CAL-62): > 2560 nM
IC50 (SW48): > 2560 nM
IC50 (YKG-1): > 2560 nM
IC50 (CHP-212): > 2560 nM
IC50 (IST-MEL1): > 2560 nM
IC50 (BB30-HNC): > 2560 nM
IC50 (Detroit 562): > 2560 nM
IC50 (KNS-42): > 2560 nM
IC50 (KYSE-70 cell line): > 2560 nM
IC50 (NB5): > 2560 nM
IC50 (NCI-H526): > 2560 nM
IC50 (MHH-ES-1): > 2560 nM
IC50 (SW13): > 2560 nM
IC50 (SBC-1): > 2560 nM
IC50 (BB49-HNC): > 2560 nM
